Experimental findings from US5175338A, “Isocarbacyclin derivatives and their pharmaceutically acceptable salts thereof” (Teijin Limited, priority 1986, dated 1992) are described below.

SMILES strings stand for the structures. In brackets after ≈: the same amount, converted by molar mass. A value given as a limit tells only on which side of the number the result lay.

The term IC50 denotes the concentration that inhibits the measured activity by half.

One assay relates to Platelet aggregation. In words: Platelet aggregation inhibiting activity in vitro (ADP-induced, rabbit platelet-rich plasma). The format is cell-based, rabbits (Japanese native white male). The conditions noted are these: Oryctolagus cuniculus, rabbit PRP, ADP 10 μM, 37° C., minimum concentration at which inhibition exceeds 50%, read-out: Platelet aggregation inhibitory activity (IC50). As to the method:
The platelet aggregation inhibiting activity in vitro of each of the text compounds was assayed by using rabbits. Japanese native white male rabbits having a body weight of 2.5 to 3.5 kg were used. Blood was taken from the ear vein of the animals maintaining the 3.8% trisodium citrate/blood ratio at 1:9. The blood was centrifuged at 1,000 rpm for 10 minutes, and the upper layer was separated as PRP (platelet-rich plasma). The lower layer was further centrifuged at 2,800 rpm for 10 minutes. It separated into two layers. The upper layer was separated as PPP (platelet-poor plasma). The number of platelets was adjusted to 6×10^5 /microliter by dilution with PPP. Each of the test compounds was added in an amount of 25 microliters to 250 microliters of PRP after adjustment, and the mixture was subjected to preincubation at 37° C. for 2 minutes. Then ADP was added so that its final concentration was 10 μM, and variations in transmittance were recorded by using an agrigometer. The test compound was used after it was dissolved in ethanol to a concentration of 10 mg/ml and then serially diluted with phosphate buffer (pH 7.4). The percent inhibition of aggregation was calculated in accordance with the following equation. [formula] where
To is the transmittance of the system to which the test compound was not added, and
T is the transmittance of the system to which the test compound was added.
The minimum concentration of the compound at which the percent inhibition exceeds 50% is shown as IC50.

Assay [1] relates to liver cell necrosis induced by carbon tetrachloride. The assay can be described thus: Effect (in vivo) on liver cell necrosis induced by carbon tetrachloride; inhibition of plasma GPT activity increase. Particulars: five administrations, 24 hours after CCl4 s.c., rat. Also on record: species or system SD-strain male rats. As for the experimental part: Effect (in vivo) on liver cell necrosis induced by carbon tetrachloride
Carbon tetrachloride and each of the test compounds were administered to SD-strain male rats (6 weeks old, body weight 170 to 200 g) by the following procedure. Blood was taken from the animals, and glutamic acid-pyruvic acid transferase (GPT) activity as an index of liver injury was measured by the ultraviolet absorbance measuring method (rate-optimum standard method), and the effect of the test compound was evaluated.
The rats were used in groups each consisting of 8 to 36 rats. The test compound was used as an aqueous 0.5% Tween 80-2.5% ethanol solution. […] The test compound was administered five times in total, i.e. 30 minutes before administration of carbon tetrachloride and 1, 2, 8 and 18 hours after administration of carbon tetrachloride. The carbon tetrachloride was subcutaneously administered as a 50% olive oil solution at a rate of […] of body weight (6670 mg/kg body weight as carbon tetrachloride). Before administration of carbon tetrachloride, the animals had been caused to abstain from food for about 18 hours.
Twenty-four hours after the administration of carbon tetrachloride, the rats were anesthetized with ether. Blood was drawn from the abdominal artery of the animals, and left to stand at room temperature for 1 hour and then centrifuged at 3,000 rpm for 15 minutes. The supernatant was used as a serum sample, and the GPT activity was measured.
The percent inhibition of the test compound on the increase of the plasma GPT activity increase by CCl4 was calculated in accordance with the following equation. [formula]

Regarding `CCCC[C@H](C)C[C@H](O)/C=C/[C@@H]1[C@H]2CC(CCCCC(=O)N[C@@H](CC(C)C)C(=O)O)=C[C@H]2C[C@H]1O` [17(S),20-Dimethylisocarbacyclin L-leucine amide], in the assay with Platelet aggregation, the IC50 was over 1000 µg/mL. The “Percent inhibition of the plasma GPT activity” value in assay [1] (0.3 mg/kg p.o.) was 33%.
`CCCCC(C)(O)C/C=C/[C@@H]1[C@H]2CC(CCCCC(=O)O)=C[C@H]2C[C@H]1O` (stereo partly shown) [15-Deoxy-16-hydroxy-16-methylisocarbacyclin]: the IC50 in the assay on Platelet aggregation amounted to 0.37 µg/mL (≈ 1.02 µM).
The same measure, in the same setting: for `CCCCC[C@H](O)/C=C/[C@@H]1[C@H]2C/C(=C/CCCC(=O)O)O[C@H]2C[C@H]1O` [Prostaglandin I2, reference compound] the value was 0.004 µg/mL (≈ 0.0113 µM).
On to `CCCC[C@H](C)C[C@H](O)/C=C/[C@@H]1[C@H]2CC(CCCCC(=O)OCC(=O)O)=C[C@H]2C[C@H]1O` [17(S),20-dimethylisocarbacyclin carboxymethyl ester], for which the IC50 with Platelet aggregation stood at 407 µg/mL (≈ 932 µM). In addition, the “Percent inhibition of the plasma GPT activity” value in assay [1] (1.0 mg/kg p.o.) is reported as 44%; in assay [1] (3.0 mg/kg p.o.), 39%.
